# From patent US7879795B2, “Enhancement of tigecycline potency using efflux pump inhibitors” (Mpex Pharmaceuticals, Inc., priority 2004, dated 2011)
# Columns and labels:
# [1] = test system: Enterobacter aerogenes 19; assay: Antibiotic MIC with fixed concentration of compound 21, Enterobacter aerogenes 19; format: cell-based
# [2] = test system: PAM 1626, Four pumps non-functional; assay: Tigecycline potentiation checkerboard assay, PAM 1626; format: cell-based, P. aeruginosa; parameters: Tigecycline MIC in the presence of Compound 21: unit not given here; conditions: PAM 1626
# Description: (§1) The ability of compound 21 to increase susceptibility to tigecycline was also assessed. The tigecycline potentiating activity of compound 21 was assessed by the checkerboard assay (Antimicrobial Combinations, Antibiotics in Laboratory Medicine, ed. Victor Lorian, M.D., Fourth edition, 1996, pp 333-338, which is incorporated herein by reference in its entirety) using a broth micro-dilution method performed as recommended by the CSLI (Clinical and Laboratory Standards Institute, formerly NCCLS) guidelines (National Committee for Clinical Laboratory Standards 2003. Methods for Dilution Antimicrobial Susceptibility Tests for Bacteria That Grow Aerobically—Sixth Edition; Approved Standard. NCCLS Document M7-A6, Vol 20 No. 2). In this assay, multiple dilutions of the two drugs, compound 21 and tigecycline, were tested alone and in combination, at concentrations equal to, above and below their respective minimal inhibitory concentrations (MICs). […] The stock solution was further diluted in Mueller Hinton Broth (MHB). Stock solutions were stored at −80° C.
# (§2) The checkerboard assay was performed in microtiter plates. Tigecycline was diluted in the x axis, each column containing a single concentration of tigecycline. Compound 21 was diluted in the y axis, each row containing an equal concentration of the EPI. […] The assay was performed in MHB with a final bacterial inoculum of 5×10^5 CFU/ml (from an early-log phase culture). The microtiter plates were incubated for 20 hours at 35° C. and then read using a microtiter plate reader (Molecular Devices) at 650 nm, as well as by visual observation using a microtiter plate-reading mirror.
# [3] = test system: PAM 2466, mexR1, MexAB-OprM and MexXY-OprM over-expressed; assay: microbe, parasite or virus in culture; format: cell-based, P. aeruginosa; parameters: Tigecycline MIC in the presence of Compound 21: unit not given here; conditions: PAM 2466
# Description: as §1, §2
# [4] = test system: PAM 1738, MexCD-OprJ over-expressed, ΔMexAB-OprM ΔMexEF-OprN; assay: microbe, parasite or virus in culture; format: cell-based, P. aeruginosa; parameters: Tigecycline MIC in the presence of Compound 21: unit not given here; conditions: PAM 1738
# Description: as §1, §2
# [5] = test system: PAM 1723, MexAB-OprM over-expressed, ΔMexCD-OprJ ΔMexEF-OprN; assay: microbe, parasite or virus in culture; format: cell-based, P. aeruginosa; parameters: Tigecycline MIC in the presence of Compound 21: unit not given here; conditions: PAM 1723
# Description: as §1, §2
# [6] = test system: PAM 1323, mexZ, MexXY-OprM over-expressed, MexAB-OprM low level; assay: microbe, parasite or virus in culture; format: cell-based, P. aeruginosa; parameters: Tigecycline MIC in the presence of Compound 21: unit not given here; conditions: PAM 1323
# Description: as §1, §2
# [7] = test system: PAM 1753, MexEF-OprN over-expressed; assay: Tigecycline potentiation checkerboard assay, PAM 1753; format: cell-based, P. aeruginosa; parameters: Tigecycline MIC in the presence of Compound 21: unit not given here; conditions: PAM 1753
# Description: as §1, §2
# [8] = test system: P. aeruginosa strain PAM 1032; assay: Mouse model of P. aeruginosa sepsis infection (tigecycline 50% effective dose); format: in vivo
# Description: Tigecycline and compound 21 were prepared in sterile 0.9% saline. Seventy Swiss-Webster mice (Harlan laboratories) with body weights ranging from 22 to 25 grams at the start of the study were used. Upon receipt, the animals were housed 5 per cage in a room with a controlled environment and were acclimated to laboratory conditions for at least 24 hours prior to the start of dosing. Animals were provided food and water ad libitum. The health status of the animals was determined during the acclimation period and unhealthy animals were not placed on study. Each animal was identified by marking their tails with indelible ink and each cage was identified by animal, group, and study number.
# P. aeruginosa strain PAM 1032 was grown in Mueller-Hinton Broth (MHB) at 35° C. under constant aeration. After 20 hours, the inoculum was sub-cultured into fresh MHB and allowed to regrow at 35° C., under constant aeration, for 4 hours. The inoculum was adjusted to ca. 4×10^7 CFU/ml by correlation of absorbance at 600 nm with predetermined plate counts. The inoculum was then diluted 2-fold in 14% hog-gastric mucin (Sigma, St. Louis, Mo.) for a final inoculum concentration of 2×10^7 CFU/ml. […] At 0 and 2 hours following infection, tigecycline was administered by the subcutaneous route and compound 21 was administered by the intraperitoneal route. […] The susceptibility of the test strain (P. aeruginosa PAM1032, […] MexAB-OprM) to tigecycline was 4 ug/ml, the susceptibility of the test strain to tigecycline in the presence of 2.5 μg/mL of compound 21 was 0.25 μg/mL.
# PAM 1020, wt = assay: Tigecycline potentiation checkerboard assay, PAM 1020; format: cell-based, P. aeruginosa; parameters: Tigecycline MIC in the presence of Compound 21: unit not given here; conditions: PAM 1020
# Description: as §1, §2
smiles,measurement,setting,value
"NCCC[C@H](N)C(=O)N[C@H](Cc1ccc(C(F)(F)F)cc1)C(=O)Nc1cnc2ccccc2c1 [Compound 21, 2-(S),5-Diamino-pentanoic acid [1-(R)-(quinolin-3-ylcarbamoyl)-2-(4-trifluoromethyl-phenyl)-ethyl]amide]",Azi + EPI (MIC),[1]; azithromycin MIC with compound 21,0.5
same,Levo + EPI at […] (MIC),[1]; levofloxacin MIC with compound 21 at […],16
same,Tig + EPI at […] (MIC),[1]; tigecycline MIC with compound 21 at […],0.25
same,Tigecycline MIC in the presence of Compound 21,[2]; Compound 21 0.625 μg/ml,0.25
same,Tigecycline MIC in the presence of Compound 21,[2]; Compound 21 1.25 μg/ml,0.25
same,Tigecycline MIC in the presence of Compound 21,[2]; Compound 21 5 μg/ml,0.25
same,Tigecycline MIC in the presence of Compound 21,[2]; Compound 21 10 μg/ml,0.25
same,Tigecycline MIC in the presence of Compound 21,[2]; Compound 21 20 μg/ml,0.5
same,Tigecycline MIC in the presence of Compound 21,[2]; Compound 21 […],0.25
same,Tigecycline MIC in the presence of Compound 21,[3]; Compound 21 0.625 μg/ml,4
same,Tigecycline MIC in the presence of Compound 21,[3]; Compound 21 1.25 μg/ml,2
same,Tigecycline MIC in the presence of Compound 21,[3]; Compound 21 5 μg/ml,0.5
same,Tigecycline MIC in the presence of Compound 21,[3]; Compound 21 10 μg/ml,0.5
same,Tigecycline MIC in the presence of Compound 21,[3]; Compound 21 20 μg/ml,0.5
same,Tigecycline MIC in the presence of Compound 21,[3]; Compound 21 40 μg/ml,0.5
same,Tigecycline MIC in the presence of Compound 21,[3]; Compound 21 […],0.5
same,Tigecycline MIC in the presence of Compound 21,[4]; Compound 21 0.625 μg/ml,1
same,Tigecycline MIC in the presence of Compound 21,[4]; Compound 21 1.25 μg/ml,0.5
same,Tigecycline MIC in the presence of Compound 21,[4]; Compound 21 5 μg/ml,0.25
same,Tigecycline MIC in the presence of Compound 21,[4]; Compound 21 10 μg/ml,0.25
same,Tigecycline MIC in the presence of Compound 21,[4]; Compound 21 20 μg/ml,0.25
same,Tigecycline MIC in the presence of Compound 21,[4]; Compound 21 40 μg/ml,0.25
same,Tigecycline MIC in the presence of Compound 21,[4]; Compound 21 […],0.25
same,Tigecycline MIC in the presence of Compound 21,[5]; Compound 21 0.625 μg/ml,4
same,Tigecycline MIC in the presence of Compound 21,[5]; Compound 21 1.25 μg/ml,2
same,Tigecycline MIC in the presence of Compound 21,[5]; Compound 21 5 μg/ml,0.5
same,Tigecycline MIC in the presence of Compound 21,[5]; Compound 21 10 μg/ml,0.5
same,Tigecycline MIC in the presence of Compound 21,[5]; Compound 21 20 μg/ml,0.5
same,Tigecycline MIC in the presence of Compound 21,[5]; Compound 21 40 μg/ml,0.5
same,Tigecycline MIC in the presence of Compound 21,[5]; Compound 21 […],0.5
same,Tigecycline MIC in the presence of Compound 21,[6]; Compound 21 0.625 μg/ml,2
same,Tigecycline MIC in the presence of Compound 21,[6]; Compound 21 1.25 μg/ml,1
same,Tigecycline MIC in the presence of Compound 21,[6]; Compound 21 5 μg/ml,0.5
same,Tigecycline MIC in the presence of Compound 21,[6]; Compound 21 10 μg/ml,0.5
same,Tigecycline MIC in the presence of Compound 21,[6]; Compound 21 20 μg/ml,0.5
same,Tigecycline MIC in the presence of Compound 21,[6]; Compound 21 40 μg/ml,0.5
same,Tigecycline MIC in the presence of Compound 21,[6]; Compound 21 […],0.5
same,Tigecycline MIC in the presence of Compound 21,[7]; Compound 21 0.625 μg/ml,1
same,Tigecycline MIC in the presence of Compound 21,[7]; Compound 21 1.25 μg/ml,1
same,Tigecycline MIC in the presence of Compound 21,[7]; Compound 21 5 μg/ml,0.25
same,Tigecycline MIC in the presence of Compound 21,[7]; Compound 21 10 μg/ml,0.25
same,Tigecycline MIC in the presence of Compound 21,[7]; Compound 21 20 μg/ml,0.25
same,Tigecycline MIC in the presence of Compound 21,[7]; Compound 21 40 μg/ml,0.25
same,Tigecycline MIC in the presence of Compound 21,[7]; Compound 21 […],0.25
same,50% effective dose of tigecycline in combination with compound 21,"[8]; mice, tigecycline SC, compound 21 IP at 0 and 2 hours",approximately 75 mg/k
same,improvement of tigecycline 50% effective dose,[8]; with compound 21,2.5 fold
same,Tigecycline MIC in the presence of Compound 21,"PAM 1020, wt; Compound 21 0.625 μg/ml",2
same,Tigecycline MIC in the presence of Compound 21,"PAM 1020, wt; Compound 21 1.25 μg/ml",1
same,Tigecycline MIC in the presence of Compound 21,"PAM 1020, wt; Compound 21 5 μg/ml",0.25
same,Tigecycline MIC in the presence of Compound 21,"PAM 1020, wt; Compound 21 10 μg/ml",0.25
same,Tigecycline MIC in the presence of Compound 21,"PAM 1020, wt; Compound 21 20 μg/ml",0.25
same,Tigecycline MIC in the presence of Compound 21,"PAM 1020, wt; Compound 21 40 μg/ml",0.25
same,Tigecycline MIC in the presence of Compound 21,"PAM 1020, wt; Compound 21 […]",0.5
